Measured values: patent US20120029187A1, “HALOALKYLSULFONANILIDE DERIVATIVE” (Nissan Chemical Industries, Ltd., priority 2009, published 2012)

Assays:
Format in all cases: in vivo
barnyardgrass [1] = assay: Test Example 2: herbicidal effects during the vegetation period under submerged conditions; settings: treatment during the vegetation period under submerged conditions; dose 2.52 g/a
How it was run: (§1)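 Barnyardgrass, bulrush and ducksalad were co-sown in alluvial soil flooded to 4 cm and grown in a greenhouse at 25 to 30° C. At the 1- or 2-leaf stage, water-diluted emulsifiable concentrates went onto the water surface at set doses (g/a). Herbicidal effect was scored three weeks later on a graded scale.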

ducksalad [2] = assay: as above; settings: treatment during the vegetation period under submerged conditions; dose 2.52 g/a
How it was run: as §1

bulrush [3] = assay: as above; settings: treatment during the vegetation period under submerged conditions; dose 2.52 g/a
How it was run: as §1

transplanted rice = assay: Test Example 1: preemergence treatment under submerged conditions, effect on crop; settings: dose 2.52 g/a
How it was run: (§2)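 Weed seeds and 2.5-leaf rice seedlings shared each flooded cup of alluvial soil. Dosing, expressed as g per are, was by pouring water-diluted emulsifiable concentrate onto the surface on sowing day. Mortality was graded 0 to 5 after three weeks' growth.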

barnyardgrass [4] = assay: Test Example 1: herbicidal effects in preemergence treatment under submerged conditions; settings: dose 2.52 g/a
How it was run: as §2

ducksalad [5] = assay: as above; settings: dose 2.52 g/a
How it was run: as §2

bulrush [6] = assay: as above; settings: dose 2.52 g/a
How it was run: as §2

water foxtail [7] = assay: Test Example 3: herbicidal effects in soil treatment; settings: dose 3.2 g/a
How it was run: (§3)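 Seeds were sown in sterilized diluvial soil and covered with about 1.5 cm of soil. Compounds, formulated as emulsifiable concentrates and diluted with water, were sprayed evenly over the soil surface at set doses in g/a. Herbicidal effect was scored on a rating scale three weeks later.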

common ragweed [8] = assay: as above; settings: dose 3.2 g/a
How it was run: as §3

barnyardgrass [9] = assay: as above; settings: dose 3.2 g/a
How it was run: as §3

Italian ryegrass [10] = assay: as above; settings: dose 3.2 g/a
How it was run: as §3

redroot pigweed [11] = assay: as above; settings: dose 3.2 g/a
How it was run: as §3

common lambsquater [12] = assay: as above; settings: dose 3.2 g/a
How it was run: as §3

velvetleaf [13] = assay: as above; settings: dose 3.2 g/a
How it was run: as §3

large crabgrass [14] = assay: as above; settings: dose 3.2 g/a
How it was run: as §3

posumbu knotweed [15] = assay: as above; settings: dose 3.2 g/a
How it was run: as §3

giant foxtail [16] = assay: as above; settings: dose 3.2 g/a
How it was run: as §3

water foxtail [17] = assay: Test Example 4: herbicidal effect in foliage treatment; settings: three weeks after application
How it was run: (§4)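 Foliar spray, post-emergence: 14-day-old greenhouse plants (25–30° C, diluvial soil) treated with water-diluted EC at set g/a doses; visual herbicidal score at 3 wk post-application.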

common chickweed [18] = assay: as above; settings: three weeks after application
How it was run: as §4

common ragweed [19] = assay: as above; settings: three weeks after application
How it was run: as §4

barnyardgrass [20] = assay: as above; settings: three weeks after application
How it was run: as §4

beadstraw = assay: as above; settings: three weeks after application
How it was run: as §4

Italian ryegrass [21] = assay: as above; settings: three weeks after application
How it was run: as §4

redroot pigweed [22] = assay: as above; settings: three weeks after application
How it was run: as §4

common lambsquater [23] = assay: as above; settings: three weeks after application
How it was run: as §4

velvetleaf [24] = assay: as above; settings: three weeks after application
How it was run: as §4

large crabgrass [25] = assay: as above; settings: three weeks after application
How it was run: as §4

posumbu knotweed [26] = assay: as above; settings: three weeks after application
How it was run: as §4

giant foxtail [27] = assay: as above; settings: three weeks after application
How it was run: as §4

common chickweed [28] = assay: Test Example 3: herbicidal effects in soil treatment; settings: dose 3.2 g/a
How it was run: as §3

| Structure (SMILES) | A: barnyardgrass, herbicidal effect (evaluation scale 0-5) (barnyardgrass [1]) | C: ducksalad, herbicidal effect (evaluation scale 0-5) (ducksalad [2]) | B: bulrush, herbicidal effect (evaluation scale 0-5) (bulrush [3]) | A: barnyardgrass, herbicidal effect (evaluation scale 0-5) (barnyardgrass [4]) | C: ducksalad, herbicidal effect (evaluation scale 0-5) (ducksalad [5]) | B: bulrush, herbicidal effect (evaluation scale 0-5) (bulrush [6]) | G: water foxtail, herbicidal effect (evaluation scale 0-5) (water foxtail [7]) | J: common ragweed, herbicidal effect (evaluation scale 0-5) (common ragweed [8]) | A: barnyardgrass, herbicidal effect (evaluation scale 0-5) (barnyardgrass [9]) | H: Italian ryegrass, herbicidal effect (evaluation scale 0-5) (Italian ryegrass [10]) | K: redroot pigweed, herbicidal effect (evaluation scale 0-5) (redroot pigweed [11]) | L: common lambsquater, herbicidal effect (evaluation scale 0-5) (common lambsquater [12]) | I: velvetleaf, herbicidal effect (evaluation scale 0-5) (velvetleaf [13]) | D: large crabgrass, herbicidal effect (evaluation scale 0-5) (large crabgrass [14]) | M: posumbu knotweed, herbicidal effect (evaluation scale 0-5) (posumbu knotweed [15]) | E: giant foxtail, herbicidal effect (evaluation scale 0-5) (giant foxtail [16]) | other results |
| --- | --- | --- | --- | --- | --- | --- | --- | --- | --- | --- | --- | --- | --- | --- | --- | --- | --- |
| CCC(=O)N(c1ccccc1CN1COC(C)(C(F)(F)F)CC1=O)S(=O)(=O)C(F)(F)F (stereo not shown) [II-47] | 4 (mortality of at least 70% and less than 90%) | 5 (mortality of 90% or above (nearly complete death)) | 5 (mortality of 90% or above (nearly complete death)) | 5 (mortality of 90% or above (nearly complete death)) | 5 (mortality of 90% or above (nearly complete death)) | 5 (mortality of 90% or above (nearly complete death)) | 5 (mortality of 90% or above (nearly complete death)) | 4 (mortality of at least 70% and less than 90%) | 5 (mortality of 90% or above (nearly complete death)) | 3 (mortality of at least 40% and less than 70%) | 0 (mortality of less than 5% (almost ineffective)) | 3 (mortality of at least 40% and less than 70%) | 4 (mortality of at least 70% and less than 90%) | 5 (mortality of 90% or above (nearly complete death)) | 3 (mortality of at least 40% and less than 70%) | 4 (mortality of at least 70% and less than 90%) | a: transplanted rice, effect on crop (evaluation scale 0-5) (transplanted rice): 0 (mortality of less than 5% (almost ineffective)); G: water foxtail, herbicidal effect (water foxtail [17]; dose 3.2 g/a): 2 (mortality of at least 20% and less than 40%); N: common chickweed, herbicidal effect (common chickweed [18]; dose 3.2 g/a): 3 (mortality of at least 40% and less than 70%); J: common ragweed, herbicidal effect (common ragweed [19]; dose 3.2 g/a): 2 (mortality of at least 20% and less than 40%); A: barnyardgrass, herbicidal effect (barnyardgrass [20]; dose 3.2 g/a): 4 (mortality of at least 70% and less than 90%); O: beadstraw, herbicidal effect (beadstraw; dose 3.2 g/a): 4 (mortality of at least 70% and less than 90%); H: Italian ryegrass, herbicidal effect (Italian ryegrass [21]; dose 3.2 g/a): 0 (mortality of less than 5% (almost ineffective)); K: redroot pigweed, herbicidal effect (redroot pigweed [22]; dose 3.2 g/a): 0 (mortality of less than 5% (almost ineffective)); L: common lambsquater, herbicidal effect (common lambsquater [23]; dose 3.2 g/a): 0 (mortality of less than 5% (almost ineffective)); I: velvetleaf, herbicidal effect (velvetleaf [24]; dose 3.2 g/a): 4 (mortality of at least 70% and less than 90%); D: large crabgrass, herbicidal effect (large crabgrass [25]; dose 3.2 g/a): 1 (mortality of at least 5% and less than 20%); M: posumbu knotweed, herbicidal effect (posumbu knotweed [26]; dose 3.2 g/a): 2 (mortality of at least 20% and less than 40%); E: giant foxtail, herbicidal effect (giant foxtail [27]; dose 3.2 g/a): 2 (mortality of at least 20% and less than 40%) |
| CCOC(=O)N(c1ccccc1CN1CC(C)OCC1=O)S(=O)(=O)C(F)(F)F (stereo not shown) [Compound I-7] | 5 (mortality of 90% or above (nearly complete death)) | 5 (mortality of 90% or above (nearly complete death)) | 5 (mortality of 90% or above (nearly complete death)) | 5 (mortality of 90% or above (nearly complete death)) | 5 (mortality of 90% or above (nearly complete death)) | 5 (mortality of 90% or above (nearly complete death)) | 5 (mortality of 90% or above (nearly complete death)) | 5 (mortality of 90% or above (nearly complete death)) | 5 (mortality of 90% or above (nearly complete death)) | 5 (mortality of 90% or above (nearly complete death)) | 5 (mortality of 90% or above (nearly complete death)) | 5 (mortality of 90% or above (nearly complete death)) | 5 (mortality of 90% or above (nearly complete death)) | 5 (mortality of 90% or above (nearly complete death)) | 5 (mortality of 90% or above (nearly complete death)) | 5 (mortality of 90% or above (nearly complete death)) | N: common chickweed, herbicidal effect (evaluation scale 0-5) (common chickweed [28]): 5 (mortality of 90% or above (nearly complete death)); G: water foxtail, herbicidal effect (water foxtail [17]; dose 6.3 g/a): 5 (mortality of 90% or above (nearly complete death)); N: common chickweed, herbicidal effect (common chickweed [18]; dose 6.3 g/a): 5 (mortality of 90% or above (nearly complete death)); J: common ragweed, herbicidal effect (common ragweed [19]; dose 6.3 g/a): 4 (mortality of at least 70% and less than 90%); A: barnyardgrass, herbicidal effect (barnyardgrass [20]; dose 6.3 g/a): 5 (mortality of 90% or above (nearly complete death)); O: beadstraw, herbicidal effect (beadstraw; dose 6.3 g/a): 5 (mortality of 90% or above (nearly complete death)); H: Italian ryegrass, herbicidal effect (Italian ryegrass [21]; dose 6.3 g/a): 5 (mortality of 90% or above (nearly complete death)); K: redroot pigweed, herbicidal effect (redroot pigweed [22]; dose 6.3 g/a): 1 (mortality of at least 5% and less than 20%); L: common lambsquater, herbicidal effect (common lambsquater [23]; dose 6.3 g/a): 4 (mortality of at least 70% and less than 90%); I: velvetleaf, herbicidal effect (velvetleaf [24]; dose 6.3 g/a): 5 (mortality of 90% or above (nearly complete death)); D: large crabgrass, herbicidal effect (large crabgrass [25]; dose 6.3 g/a): 5 (mortality of 90% or above (nearly complete death)); M: posumbu knotweed, herbicidal effect (posumbu knotweed [26]; dose 6.3 g/a): 4 (mortality of at least 70% and less than 90%); E: giant foxtail, herbicidal effect (giant foxtail [27]; dose 6.3 g/a): 5 (mortality of 90% or above (nearly complete death)) |
